Data reported in PMC11786100, “Chronic GIPR agonism results in pancreatic islet GIPR functional desensitisation” (Molecular Metabolism, 2025).

Columns and labels:
mouse GIPR = assay: HTRF cAMP assay in transiently transfected AD-293 cells; assay type: cell-based; details: 30 min stimulation, n = 3–5
Experimental: (§1) AD-293 cells were transfected with desired plasmid DNA 24 h prior to cAMP quantification using the cAMP-Gs Dynamic 2 kit (Cisbio, France), as per manufacturer's protocol. Full details are provided in the supplementary methods.
(§2) AD-293 cells were added to a 12-well plate and maintained in 2 ml complete DMEM. 1 μg of specified plasmid DNA was added to each well alongside Lipofectamine 2000 (Thermo Fisher, UK). cAMP production was quantified 24 hours following transfection using homogenous time resolved fluorescence (HTRF), specifically the cAMP-Gs Dynamic 2 kit (Cisbio, France). Peptides and cells were diluted in DMEM + 1% P/S + 0.1% BSA. For peptide stability testing, cells, fresh peptide and peptide incubated with dispersed islet cells were diluted in RPMI-1640 (Thermo Fisher, UK) + 10% FBS + 1% P/S. 10 μl of peptide and 10 μl of cell suspension were added in duplicate to an opaque 96-well plate (Grenier Bio-One, Austria) and incubated at 37°C for 30 minutes. 10 μl of cAMP-d2 and anti-cAMP cryptate, both diluted in lysis buffer, were added in quick succession as per the manufacturer’s protocol. The plates were then incubated at room temperature for 45 minutes and read using the SpectraMax i3x (Molecular Devices, US).

mouse GLP-1R = target: T1, mouse GLP-1R (Mus musculus, UniProt O35659); assay: as above; assay type: cell-based; details: 30 min stimulation, n = 3–5
T1 construct: Plasmids encoding full length, wild-type human or mouse GLP-1R, GIPR or glucagon receptor (GCGR) in the pcDNA5/FRT vector; host or cells: AD-293
T1 sequence (O35659 22-463): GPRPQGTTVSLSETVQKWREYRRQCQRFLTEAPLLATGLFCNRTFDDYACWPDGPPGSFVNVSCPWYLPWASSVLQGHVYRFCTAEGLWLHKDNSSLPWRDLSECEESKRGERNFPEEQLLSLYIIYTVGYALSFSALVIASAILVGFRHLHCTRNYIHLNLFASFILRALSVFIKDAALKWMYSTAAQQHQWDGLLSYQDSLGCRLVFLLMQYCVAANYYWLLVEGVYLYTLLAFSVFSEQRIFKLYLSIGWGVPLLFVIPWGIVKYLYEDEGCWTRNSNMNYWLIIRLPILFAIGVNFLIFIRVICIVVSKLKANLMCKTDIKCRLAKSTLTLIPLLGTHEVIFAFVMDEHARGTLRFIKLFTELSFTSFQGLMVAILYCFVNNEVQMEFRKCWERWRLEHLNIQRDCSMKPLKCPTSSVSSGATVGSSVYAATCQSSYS
Experimental: as §1, §2

β2-adrenergic receptor = assay: Ex vivo islet heterologous desensitisation, isoproterenol rechallenge cAMP; assay type: cell-based, mouse; details: 24-hour pre-treatment with GIP108 (1 μM); dispersed islets, cADDis, n=3
Experimental: Primary cultures of mouse hypothalamic neurons and dispersed pancreatic islets were transduced with the Green Up cADDis biosensor (Montana Molecular, US). Pancreatic islets from CAMPER^Pdx−1-CreERT2 and CAMPER^Som-Cre mice were not transduced. Cells were pre-treated with peptides as specified, dissolved in culture media. Following 4 h or overnight incubation and a 1-hour washout period, cells were imaged using an epifluorescence microscope at baseline (t = 3 min), following peptide addition (t = 10 min, unless specified otherwise), and following 3-isobutyl-1-methylxanthine (IBMX) (500 μM) and forskolin (FSK) (50 μM) addition (t = 3 min) to maximally stimulate the sensor. In pre-treatment experiments, islet cell fluorescence was normalised to the IBMX/FSK response which was set as 100%. In non-pre-treatment experiments, islet and neuronal cell fluorescence was normalised to both the baseline and IBMX/FSK response. The area-under-the-curve (AUC) for each cell was quantified. […]
cAMP quantification from the raw islet/neuronal images was performed using Fiji v1.54f (NIH). […] The fluorescence intensity of each ROI was measured at each time point. In pre-treatment experiments, islet cell fluorescence was normalised to the maximal IBMX/FSK response which was set as 100%. […] The AUC during peptide stimulation for each cell was quantified. […]

SMILES: CC[C@H](C)[C@H](NC(=O)[C@H](CO)NC(=O)[C@H](Cc1ccc(O)cc1)NC(=O)[C@H](CC(=O)O)NC(=O)[C@H](CO)NC(=O)[C@@H](NC(=O)[C@H](Cc1ccccc1)NC(=O)[C@@H](NC(=O)CNC(=O)[C@H](CCC(=O)O)NC(=O)C(C)(C)NC(=O)[C@@H](N)Cc1ccc(O)cc1)[C@@H](C)O)[C@@H](C)CC)C(=O)N[C@@H](C)C(=O)N[C@@H](CC(C)C)C(=O)N[C@@H](CC(=O)O)C(=O)N[C@@H](CCCCN)C(=O)N[C@H](C(=O)N[C@@H](Cc1c[nH]cn1)C(=O)N[C@@H](CCC(N)=O)C(=O)N[C@@H](CCC(N)=O)C(=O)N[C@@H](CC(=O)O)C(=O)N[C@@H](Cc1ccccc1)C(=O)N[C@H](C(=O)N[C@@H](CC(N)=O)C(=O)N[C@@H](Cc1c[nH]c2ccccc12)C(=O)N[C@@H](CC(C)C)C(=O)N[C@@H](CC(C)C)C(=O)N[C@@H](C)C(=O)N[C@@H](CCC(N)=O)C(=O)N[C@@H](CCCCN)C(=O)NCC(=O)N[C@@H](CCCCNC(=O)CC[C@H](NC(=O)CCCCCCCCCCCCCCCCCCC(=O)O)C(=O)O)C(=O)N[C@@H](CCCCN)C(=O)N[C@@H](CC(N)=O)C(=O)N[C@@H](CC(=O)O)C(=O)N[C@@H](Cc1c[nH]c2ccccc12)C(=O)N[C@@H](CCCCN)C(=O)N[C@@H](Cc1c[nH]cn1)C(=O)N[C@@H](CC(N)=O)C(=O)N[C@H](C(=O)N[C@H](C(=O)N[C@@H](CCC(N)=O)C(=O)O)[C@@H](C)O)[C@@H](C)CC)C(C)C)[C@@H](C)CC [GIP108]
- fold lower cAMP potency than hGIP at mouse GIPR (mouse GIPR): 19.6 fold
- cAMP activation of mouse GLP-1R (mouse GLP-1R): minimal activation
- cAMP response to isoproterenol (1 μM) after GIP108 pre-treatment (β2-adrenergic receptor): remained intact
